Reference: ChEMBL document CHEMBL1201861, “Genomics of Drug Sensitity in Cancer screening data, Wellcome Trust Sanger Institute”

Columns and labels:
Assay in all cases: cells
[1] = test system: COLO-792; format: functional, cell-based, Homo sapiens; conditions: Homo sapiens, COLO-792
Description: SANGER: Inhibition of human COLO-792 cell growth in a cell viability assay.

[2] = test system: COLO-824; format: functional, cell-based, Homo sapiens; conditions: Homo sapiens, COLO-824
Description: SANGER: Inhibition of human COLO-824 cell growth in a cell viability assay.

[3] = test system: D-263MG; format: functional, cell-based, Homo sapiens; conditions: Homo sapiens, D-263MG
Description: SANGER: Inhibition of human D-263MG cell growth in a cell viability assay.

[4] = test system: D-542MG; format: functional, cell-based, Homo sapiens; conditions: Homo sapiens, D-542MG
Description: SANGER: Inhibition of human D-542MG cell growth in a cell viability assay.

[5] = test system: Daoy; format: functional, cell-based, Homo sapiens; conditions: Homo sapiens, Daoy;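 note: daoy cell growth inhibition, read out as cell viability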
Description: SANGER: Inhibition of human Daoy cell growth in a cell viability assay.

[6] = test system: EFO-21; format: functional, cell-based, Homo sapiens; conditions: Homo sapiens, EFO-21;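 note: growth inhibition of EFO-21 cells measured with a viability assay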
Description: SANGER: Inhibition of human EFO-21 cell growth in a cell viability assay.

[7] = test system: ES7; format: functional, cell-based, Homo sapiens; conditions: Homo sapiens, ES7;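 note: growth inhibition of cultured human ES7 cells, read out as cell viability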
Description: SANGER: Inhibition of human ES7 cell growth in a cell viability assay.

[8] = test system: ES8; format: functional, cell-based, Homo sapiens; conditions: Homo sapiens, ES8;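 note: growth inhibition of human ES8 cells, read out with a cell viability assay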
Description: SANGER: Inhibition of human ES8 cell growth in a cell viability assay.

[9] = test system: EW-1; format: functional, cell-based, Homo sapiens; conditions: Homo sapiens, EW-1;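 note: growth inhibition of the human EW-1 cell line, read out by a cell viability assay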
Description: SANGER: Inhibition of human EW-1 cell growth in a cell viability assay.

[10] = test system: EW-13; format: functional, cell-based; conditions: Homo sapiens;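 note: growth inhibition of EW-13 cells, read out with a cell viability assay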
Description: SANGER: Inhibition of human EW-13 cell growth in a cell viability assay.

[11] = test system: HCC1806; format: functional, cell-based, Homo sapiens; conditions: Homo sapiens, HCC1806;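 note: growth inhibition of the cancer cell line, determined with a cell viability assay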
Description: SANGER: Inhibition of human HCC1806 cell growth in a cell viability assay.

[12] = test system: HCC1937; format: functional, cell-based, Homo sapiens; conditions: Homo sapiens, HCC1937;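 note: growth inhibition measured with a cell viability read-out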
Description: SANGER: Inhibition of human HCC1937 cell growth in a cell viability assay.

[13] = test system: HCC70; format: functional, cell-based, Homo sapiens; conditions: Homo sapiens, HCC70;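 note: cell viability assay measuring how strongly the compound suppresses proliferation of HCC70 cells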
Description: SANGER: Inhibition of human HCC70 cell growth in a cell viability assay.

[14] = test system: HD-MY-Z; format: functional, cell-based, Homo sapiens; conditions: Homo sapiens, HD-MY-Z;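 note: growth inhibition of HD-MY-Z cells, read out with a cell viability assay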
Description: SANGER: Inhibition of human HD-MY-Z cell growth in a cell viability assay.

[15] = test system: HGC-27; format: functional, cell-based, Homo sapiens; conditions: Homo sapiens, HGC-27;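 note: growth inhibition of human HGC-27 cells, read out in a cell viability assay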
Description: SANGER: Inhibition of human HGC-27 cell growth in a cell viability assay.

[16] = test system: HOP-62; format: functional, cell-based, Homo sapiens; conditions: Homo sapiens, HOP-62;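 note: cell growth inhibition determined with a viability assay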
Description: SANGER: Inhibition of human HOP-62 cell growth in a cell viability assay.

[17] = test system: HuO-3N1; format: functional, cell-based, Homo sapiens; conditions: Homo sapiens, HuO-3N1;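 note: cell viability readout used to measure how strongly compounds suppress proliferation of human HuO-3N1 cells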
Description: SANGER: Inhibition of human HuO-3N1 cell growth in a cell viability assay.

[18] = test system: J82; format: functional, cell-based; conditions: Homo sapiens;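 note: growth inhibition of J82 cells, read out with a cell viability assay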
Description: SANGER: Inhibition of human J82 cell growth in a cell viability assay.

[19] = test system: KU812 cell line; format: functional, cell-based; conditions: Homo sapiens;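 note: growth inhibition of KU812 cells, read out with a cell viability assay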
Description: SANGER: Inhibition of human KU812 cell growth in a cell viability assay.

[20] = test system: KYSE-270; format: functional, cell-based, Homo sapiens; conditions: Homo sapiens, KYSE-270;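 note: cell growth inhibition measured with a viability assay in the human KYSE-270 line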
Description: SANGER: Inhibition of human KYSE-270 cell growth in a cell viability assay.

[21] = test system: LoVo; format: functional, cell-based; conditions: Homo sapiens;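 note: growth inhibition of human LoVo cells, read out with a cell viability assay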
Description: SANGER: Inhibition of human LoVo cell growth in a cell viability assay.

[22] = test system: MDA-MB-157; format: functional, cell-based, Homo sapiens; conditions: Homo sapiens, MDA-MB-157
Description: SANGER: Inhibition of human MDA-MB-157 cell growth in a cell viability assay.

[23] = test system: MDA-MB-231; format: functional, cell-based, Homo sapiens; conditions: Homo sapiens, MDA-MB-231
Description: SANGER: Inhibition of human MDA-MB-231 cell growth in a cell viability assay.

[24] = test system: MG-63; format: functional, cell-based, Homo sapiens; conditions: Homo sapiens, MG-63;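 note: growth inhibition of human MG-63 cells, read out with a cell viability assay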
Description: SANGER: Inhibition of human MG-63 cell growth in a cell viability assay.

[25] = test system: MKN-7; format: functional, cell-based, Homo sapiens; conditions: Homo sapiens, MKN-7;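 note: growth inhibition of MKN-7 cells, read out with a cell viability assay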
Description: SANGER: Inhibition of human MKN7 cell growth in a cell viability assay.

[26] = test system: MOLT-4; format: functional, cell-based; conditions: Homo sapiens;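 note: growth inhibition of MOLT-4 cells, determined with a cell viability readout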
Description: SANGER: Inhibition of human MOLT-4 cell growth in a cell viability assay.

[27] = test system: NCI-H1155; format: functional, cell-based; conditions: Homo sapiens;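 note: cell growth inhibition measured by a viability assay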
Description: SANGER: Inhibition of human NCI-H1155 cell growth in a cell viability assay.

[28] = test system: NCI-H1355; format: functional, cell-based, Homo sapiens; conditions: Homo sapiens, NCI-H1355;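 note: growth inhibition of human NCI-H1355 cells, read out by a cell viability assay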
Description: SANGER: Inhibition of human NCI-H1355 cell growth in a cell viability assay.

[29] = test system: NCI-H2030; format: functional, cell-based, Homo sapiens; conditions: Homo sapiens, NCI-H2030;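 note: growth inhibition of human NCI-H2030 cells, read out by a cell viability assay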
Description: SANGER: Inhibition of human NCI-H2030 cell growth in a cell viability assay.

[30] = test system: NCI-H28; format: functional, cell-based, Homo sapiens; conditions: Homo sapiens, NCI-H28;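 note: growth inhibition of human NCI-H28 cells, read out as cell viability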
Description: SANGER: Inhibition of human NCI-H28 cell growth in a cell viability assay.

[31] = test system: NTERA-2-cl-D1; format: functional, cell-based, Homo sapiens; conditions: Homo sapiens, NTERA-2-cl-D1;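 note: inhibition of cell growth, measured with a cell viability assay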
Description: SANGER: Inhibition of human NTERA-S-cl-D1 cell growth in a cell viability assay.

[32] = test system: PANC-03-27; format: functional, cell-based, Homo sapiens; conditions: Homo sapiens, PANC-03-27
Description: SANGER: Inhibition of human PANC-03-27 cell growth in a cell viability assay.

[33] = test system: RMG-I; format: functional, cell-based, Homo sapiens; conditions: Homo sapiens, RMG-I;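 note: growth inhibition of human RMG-I cells, read out with a cell viability assay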
Description: SANGER: Inhibition of human RMG-I cell growth in a cell viability assay.

[34] = test system: RO82-W-1; format: functional, cell-based, Homo sapiens; conditions: Homo sapiens, RO82-W-1;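 note: growth inhibition of human RO82-W-1 cells, measured with a cell viability assay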
Description: SANGER: Inhibition of human RO82-W-1 cell growth in a cell viability assay.

[35] = test system: SNU-C2B; format: functional, cell-based, Homo sapiens; conditions: Homo sapiens, SNU-C2B;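 note: cell viability readout used to measure compound-driven suppression of SNU-C2B cell proliferation, IC50 marking half-maximal growth inhibition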
Description: SANGER: Inhibition of human SNU-C2B cell growth in a cell viability assay.

[36] = test system: SW1088; format: functional, cell-based, Homo sapiens; conditions: Homo sapiens, SW1088;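 note: growth inhibition of human SW1088 cells, read out by a cell viability assay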
Description: SANGER: Inhibition of human SW1088 cell growth in a cell viability assay.

[37] = test system: SW48; format: functional, cell-based, Homo sapiens; conditions: Homo sapiens, SW48;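 note: growth inhibition of SW48 cells, read out with a cell viability assay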
Description: SANGER: Inhibition of human SW48 cell growth in a cell viability assay.

[38] = test system: SW982; format: functional, cell-based; conditions: Homo sapiens;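 note: growth inhibition of SW982 cells, read out with a cell viability assay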
Description: SANGER: Inhibition of human SW982 cell growth in a cell viability assay.

[39] = test system: 769-P; format: functional, cell-based, Homo sapiens; conditions: Homo sapiens, 769-P
Description: SANGER: Inhibition of human 769-P cell growth in a cell viability assay.

[40] = test system: A2058; format: functional, cell-based; conditions: Homo sapiens;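 note: reduction of A2058 cell growth, read out with a viability assay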
Description: SANGER: Inhibition of human A2058 cell growth in a cell viability assay.

[41] = test system: ABC-1; format: functional, cell-based, Homo sapiens; conditions: Homo sapiens, ABC-1;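 note: growth inhibition of human ABC-1 cells, read out by a cell viability assay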
Description: SANGER: Inhibition of human ABC-1 cell growth in a cell viability assay.

[42] = test system: BT-474; format: functional, cell-based, Homo sapiens; conditions: Homo sapiens, BT-474
Description: SANGER: Inhibition of human BT-474 cell growth in a cell viability assay.

[43] = test system: C2BBe1; format: functional, cell-based, Homo sapiens; conditions: Homo sapiens, C2BBe1;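 note: growth inhibition of C2BBe1 cells, read out through a viability assay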
Description: SANGER: Inhibition of human C2BBe1 cell growth in a cell viability assay.

[44] = test system: CAKI-1; format: functional, cell-based, Homo sapiens; conditions: Homo sapiens, CAKI-1;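 note: growth inhibition of CAKI-1 cells, measured by a cell viability assay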
Description: SANGER: Inhibition of human CAKI-1 cell growth in a cell viability assay.

[45] = test system: TE-6; format: functional, cell-based, Homo sapiens; conditions: Homo sapiens, TE-6;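 note: growth inhibition of TE-6 cells, read out with a cell viability assay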
Description: SANGER: Inhibition of human TE-6 cell growth in a cell viability assay.

[46] = test system: TYK-nu; format: functional, cell-based, Homo sapiens; conditions: Homo sapiens, TYK-nu;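 note: growth inhibition of human TYK-nu cells, read out by a cell viability assay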
Description: SANGER: Inhibition of human TYK-nu cell growth in a cell viability assay.

[47] = test system: YAPC; format: functional, cell-based, Homo sapiens; conditions: Homo sapiens, YAPC;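 note: growth inhibition of YAPC cells, measured with a cell viability assay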
Description: SANGER: Inhibition of human YAPC cell growth in a cell viability assay.

[48] = test system: COLO-320-HSR; format: functional, cell-based; conditions: Homo sapiens;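 note: growth inhibition of COLO-320-HSR cells, determined with a cell viability assay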
Description: SANGER: Inhibition of human COLO-320-HSR cell growth in a cell viability assay.

[49] = test system: COLO-668; format: functional, cell-based, Homo sapiens; conditions: Homo sapiens, COLO-668
Description: SANGER: Inhibition of human COLO-668 cell growth in a cell viability assay.

[50] = test system: COLO-680N; format: functional, cell-based, Homo sapiens; conditions: Homo sapiens, COLO-680N;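 note: cell viability assay used to measure inhibition of COLO-680N cell growth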
Description: SANGER: Inhibition of human COLO-680N cell growth in a cell viability assay.

[51] = test system: NB14; format: functional, cell-based; conditions: Homo sapiens;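 note: growth inhibition of NB14 cells measured with a cell viability assay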
Description: SANGER: Inhibition of human NB14 cell growth in a cell viability assay.

COc1cc([C@@H]2c3cc4c(cc3[C@@H](O[C@@H]3O[C@@H]5CO[C@@H](C)O[C@H]5[C@H](O)[C@H]3O)[C@H]3COC(=O)[C@H]23)OCO4)cc(OC)c1O [ETOPOSIDE]
IC50 [1]: > 16 µM | IC50 [2]: > 16 µM | IC50 [3]: > 16 µM | IC50 [4]: > 16 µM | IC50 [5]: 0.368 µM | IC50 [6]: 11.9 µM | IC50 [7]: 0.767 µM | IC50 [8]: 0.142 µM | IC50 [9]: 1.46 µM | IC50 [10]: 0.0889 µM | IC50 [11]: 4.73 µM | IC50 [12]: 15.8 µM | IC50 [13]: > 16 µM | IC50 [14]: 8.54 µM | IC50 [15]: 0.102 µM | IC50 [16]: 0.524 µM | IC50 [17]: 7.71 µM | IC50 [18]: 3.34 µM | IC50 [19]: 2.03 µM | IC50 [20]: 0.252 µM | IC50 [21]: 2.06 µM | IC50 [22]: 12.6 µM | IC50 [23]: 9.09 µM | IC50 [24]: 1.18 µM | IC50 [25]: > 16 µM | IC50 [26]: 0.418 µM | IC50 [27]: 11 µM | IC50 [28]: 0.39 µM | IC50 [29]: 0.23 µM | IC50 [30]: > 16 µM | IC50 [31]: 0.025 µM | IC50 [32]: 1.64 µM | IC50 [33]: > 16 µM | IC50 [34]: > 16 µM | IC50 [35]: > 16 µM | IC50 [36]: > 16 µM | IC50 [37]: 0.869 µM | IC50 [38]: 0.131 µM | IC50 [39]: 2.26 µM | IC50 [40]: 0.425 µM | IC50 [41]: 0.405 µM | IC50 [42]: > 16 µM | IC50 [43]: > 16 µM | IC50 [44]: 6.65 µM | IC50 [45]: > 16 µM | IC50 [46]: 2.41 µM | IC50 [47]: > 16 µM | IC50 [48]: 9.73 µM | IC50 [49]: 1.66 µM | IC50 [50]: 8.26 µM

COc1ccc(C2=N[C@@H](c3ccc(Cl)cc3)[C@@H](c3ccc(Cl)cc3)N2C(=O)N2CCNC(=O)C2)c(OC(C)C)c1 [NUTLIN-3]
IC50 [1]: > 8 µM | IC50 [2]: > 8 µM | IC50 [3]: > 8 µM | IC50 [5]: > 8 µM | IC50 [6]: > 8 µM | IC50 [7]: > 8 µM | IC50 [8]: > 8 µM | IC50 [9]: > 8 µM | IC50 [10]: > 8 µM | IC50 [11]: > 8 µM | IC50 [12]: > 8 µM | IC50 [13]: > 8 µM | IC50 [14]: > 8 µM | IC50 [15]: > 8 µM | IC50 [17]: > 8 µM | IC50 [18]: > 8 µM | IC50 [19]: > 8 µM | IC50 [20]: > 8 µM | IC50 [21]: 6.02 µM | IC50 [22]: > 8 µM | IC50 [23]: > 8 µM | IC50 [24]: > 8 µM | IC50 [25]: > 8 µM | IC50 [26]: 2.33 µM | IC50 [51]: > 8 µM | IC50 [27]: > 8 µM | IC50 [28]: > 8 µM | IC50 [29]: > 8 µM | IC50 [30]: 4.63 µM | IC50 [31]: > 8 µM | IC50 [32]: > 8 µM | IC50 [33]: > 8 µM | IC50 [34]: > 8 µM | IC50 [35]: > 8 µM | IC50 [36]: > 8 µM | IC50 [37]: > 8 µM | IC50 [38]: 3.51 µM | IC50 [39]: > 8 µM | IC50 [40]: > 8 µM | IC50 [41]: > 8 µM | IC50 [42]: > 8 µM | IC50 [43]: 3.17 µM | IC50 [44]: 3.13 µM | IC50 [45]: > 8 µM | IC50 [46]: > 8 µM | IC50 [47]: > 8 µM | IC50 [48]: > 8 µM | IC50 [49]: > 8 µM | IC50 [50]: > 8 µM

O=C(c1cc(Cc2n[nH]c(=O)c3ccccc23)ccc1F)N1CCN(C(=O)C2CC2)CC1 [OLAPARIB]
IC50 [1]: > 5 µM | IC50 [2]: > 5 µM | IC50 [3]: > 5 µM | IC50 [5]: > 5 µM | IC50 [6]: > 5 µM | IC50 [7]: > 5 µM | IC50 [8]: 1.72 µM | IC50 [9]: > 5 µM | IC50 [10]: > 5 µM | IC50 [11]: > 5 µM | IC50 [12]: > 5 µM | IC50 [13]: > 5 µM | IC50 [14]: > 5 µM | IC50 [15]: > 5 µM | IC50 [17]: > 5 µM | IC50 [18]: > 5 µM | IC50 [19]: > 5 µM | IC50 [20]: > 5 µM | IC50 [21]: > 5 µM | IC50 [22]: > 5 µM | IC50 [23]: > 5 µM | IC50 [24]: > 5 µM | IC50 [25]: > 5 µM | IC50 [26]: > 5 µM | IC50 [51]: > 5 µM | IC50 [27]: > 5 µM | IC50 [28]: > 5 µM | IC50 [29]: > 5 µM | IC50 [30]: > 5 µM | IC50 [31]: 1.33 µM | IC50 [32]: > 5 µM | IC50 [33]: > 5 µM | IC50 [34]: > 5 µM | IC50 [35]: > 5 µM | IC50 [36]: > 5 µM | IC50 [37]: > 5 µM | IC50 [38]: > 5 µM | IC50 [39]: > 5 µM | IC50 [40]: > 5 µM | IC50 [41]: > 5 µM | IC50 [42]: > 5 µM | IC50 [43]: > 5 µM | IC50 [44]: > 5 µM | IC50 [45]: > 5 µM | IC50 [46]: > 5 µM | IC50 [47]: > 5 µM | IC50 [48]: > 5 µM | IC50 [49]: > 5 µM | IC50 [50]: > 5 µM
